Data set [1] deals with isolated mouse brain microvessels. Briefly: 125I-insulin surface binding and internalization in isolated brain microvessels with endocytosis inhibitors. It counts as cell-based. As to conditions: relative to vehicle; for amount of 125I-insulin internalized, difference vs vehicle (increase): inhibitor 15 min 37°C (monensin 10 μM, p = 0.079 not significant; CPZ 2.8 mM in 20% MeOH, p = 0.018), then 125I-insulin 15 min 37°C, cytoplasmic + membrane fraction; for microvessel surface binding of 125I-insulin, difference vs vehicle (increase): ~90 μg protein, inhibitor 15 min 37°C (monensin 10 μM; CPZ 2.8 mM in 20% MeOH), then 125I-insulin 400,000 CPM 15 min 37°C, acid-wash reversible binding, gamma counter, 2-3 biological replicates. How it is done: Whole brains were pooled and homogenized in chilled isolation buffer (DMEM, 25 mM HEPES, pH 7.4, 1% (w/v) dextran and 0.5% BSA) with a Dounce homogenizer. A range of 8–20 brains were pooled each experimental day. The homogenate was poured once through a 300 μm mesh, then twice through a 100 μm mesh. The filtrate was combined with an equivalent volume of chilled 40% dextran in isolation buffer and centrifuged at 3000 g for 30 min at 4°C. The pellet was resuspended in 1 ml of isolation buffer and pipetted twice through a 20 μm pluriStrainer® mesh (pluriSelect Life Science, Leipzig, Germany), before a final rinse with isolation buffer. […] The pellet was resuspended in 1 ml of PBS and spun at 500 g for 3 min at 4°C three times.
Briefly, the suspended pellet was evenly split between treatment groups, with two technical replicates per group. On average, each binding assay involved approximately 90 μg protein from the isolated microvessels in 40–45 μL. Each study was repeated with separate isolated microvessels for 2-3 biological replicates per study. Microvessels were treated with vehicle or an endocytosis inhibitor. Inhibitors were made up in incubation buffer and/or MeOH. Final concentrations for inhibitors include: monensin (10 μM), CPZ (2.8 mM in 20% MeOH), and filipin III (2 μg/ml in 0.2% MeOH) with respective vehicle MeOH controls. […] Samples were centrifuged at 10,000 g for 2 min at 4°C, and the supernatants were collected. The pellets were resuspended in incubation buffer, centrifuged at 4,225 g for 2 min at 4°C, and the supernatants were combined with the previous ones. The radioactivity in the pellets and combined supernatants were measured in a gamma counter (Wizard^2, PerkinElmer). In order to determine the amount of substrate bound to the cell surface, the pellet was resuspended in 400 μL of chilled acid wash buffer (0.2 M glycine, 0.15 M NaCl) to strip the surface of reversibly bound substrates on ice for 6 min, centrifuged at 4,225 g for 2 min at 4°C. The supernatant was collected and measured in a gamma counter as before to determine the amount of reversible binding (RB) at the plasma membrane, which we have called surface binding. To determine the amount of substrate internalized, the pellet was resuspended in 400 μL of chilled 1% BSA in deionized water and incubated for 1 h on ice to lyse the cells. The sample was centrifuged as before, the supernatant was collected, and the pellet was suspended again in 1% BSA and incubated on ice for 30 min. The sample was centrifuged, the supernatant was combined with the previous one, and both supernatant and pellet were measured in a gamma counter. […]
Percentages were calculated by dividing the measurement of interest (surface binding or internalization) by the total counts present in the sample and multiplying by 100. […]

Data set [2] concerns the target blood-brain barrier. Briefly: In situ brain perfusion: 125I-insulin BBB transport (Ki) and vascular binding (Vi) after inhibitor pre-perfusion. It counts as in vivo, mouse. Conditions: for effect on 125I-insulin transport (Ki) or vascular binding (Vi) (in words): whole brain or olfactory bulb. How it is done:
Following anesthesia, the thoracic cavity was opened and the descending thoracic aorta was clamped and jugular veins were cut to allow blood to drain from the brain vascular space. A 26-gauge butterfly needle was inserted into the left ventricle of the heart and mice were pre-perfused with vehicle or inhibitor at a rate of 2 ml/min. Mice were perfused with vehicle (1% MeOH in Zlokovic buffer: 7.19 g/L NaCl, 0.3 g/L KCl, 0.28 g/L CaCl2, 2.1 g/L NaHCO3, 0.16 g/L KH2PO4, 0.17 g/L anhydrous MgCl2, 0.99 g/L D-glucose and 1% BSA) ± 5 μM monensin or 2 μg/ml filipin III. […] Mice were perfused for timepoints ranging from 0.5 to 5 min. Whole brains, olfactory bulbs, and the hypothalamus were collected, weighed, and measured for radioactivity in a gamma counter. Brain/perfusate ratios (μL/g) were calculated by dividing the cpm per Gram of tissue by the cpm per μL of perfusate and plotted against perfusion time.
Regression analysis and other statistical analyses were performed using Prism 8.0 (GraphPad Software Inc., San Diego, CA, United States). For microvessel binding assays, the means are reported with their standard error terms and compared by a Student’s t test was. p values less than 0.05 were considered statistically significant. For in situ brain perfusion studies, linear regressions were performed on the brain/serum or brain/perfusate ratios using GraphPad Prism software. Linear regression lines were compared statistically with the Prism 8.0 software package. They are reported with their correlation coefficients (r) and linear regression p values.

A further data set concerns the target T1, insulin receptor (Mus musculus, UniProt P15208).
T1 construct: from tissue; host or cells: living mouse; brain vasculature (olfactory bulb and 10 dissected brain regions)
Briefly: In vivo regional 125I-S961 binding at the BBB after IV monensin pre-treatment. Conditions: 30 min IV pre-treatment, 100 μL of 50 μM monensin in 10% MeOH in 0.1% BSA/LR; 125I-S961 circulated 5 min; olfactory bulb and 10 brain regions; two-way ANOVA treatment p = 0.0008, no post hoc differences; n = 6/group. How it is done: In anesthetized mice, the jugular vein was exposed and a 100 μL IV injection containing vehicle (10% MeOH in 0.1% BSA/LR) or monensin (50 μM in 10% MeOH in 0.1% BSA/LR) was administered. Thirty min later, a second 100 μL IV injection containing 1 × 10^6 ^125I-[…] was administered and circulated for 5 min. Blood was collected from the descending aorta, the olfactory bulbs and whole brains removed, and whole brains dissected into 10 brain regions according to the method by [Glowinski and Iversen, (1966)]. The amount of radioactivity in each region was counted in a gamma counter (Wizard^2, PerkinElmer) and corrected for the % injected ^125I-[…] (based on injection checks) and divided by the weight of the tissue (g) to get %Inj/g levels.

In data set [3] the test system is blood-brain barrier. It is filed as in vivo, mouse. As to conditions: 50 μM monensin IV pre-treatment 30 min vs vehicle. How it is done:
The reaction started with the addition of 10 μg chloramine-T in 0.25 M PB and terminated 1 min later with addition of 100 μg sodium metabisulfite. ^131I-albumin was labeled was labeled the same way except used 2 mCi ^131I (Perkin-Elmer, Waltham, MA, United States). ^131I-albumin was used as a vascular marker for the ^125I-transferrin multiple-time regression analysis transport studies as previously described ([Rhea et al., 2018]). A Sephadex G-10 column (Sigma-Aldrich) was used to separate labeled peptides and proteins from free iodine. Protein labeling was characterized by 15% trichloroacetic acid (TCA) precipitation. The radioactively labeled substrates we injected were quality-controlled materials, negating the overestimation of free ^125I.
FIGURE 3 Role of clathrin in transferrin hypothalamic BBB transport.

[4] abbreviates: hypothalamus, 2 μg/ml filipin pre-perfusion 10 min.
The mark [5] stands for this setting: olfactory bulb, 2 μg/ml filipin pre-perfusion 10 min.
[6] abbreviates: whole brain, 2 μg/ml filipin pre-perfusion 10 min.

T1 sequence (P15208 28-748 limits assumed): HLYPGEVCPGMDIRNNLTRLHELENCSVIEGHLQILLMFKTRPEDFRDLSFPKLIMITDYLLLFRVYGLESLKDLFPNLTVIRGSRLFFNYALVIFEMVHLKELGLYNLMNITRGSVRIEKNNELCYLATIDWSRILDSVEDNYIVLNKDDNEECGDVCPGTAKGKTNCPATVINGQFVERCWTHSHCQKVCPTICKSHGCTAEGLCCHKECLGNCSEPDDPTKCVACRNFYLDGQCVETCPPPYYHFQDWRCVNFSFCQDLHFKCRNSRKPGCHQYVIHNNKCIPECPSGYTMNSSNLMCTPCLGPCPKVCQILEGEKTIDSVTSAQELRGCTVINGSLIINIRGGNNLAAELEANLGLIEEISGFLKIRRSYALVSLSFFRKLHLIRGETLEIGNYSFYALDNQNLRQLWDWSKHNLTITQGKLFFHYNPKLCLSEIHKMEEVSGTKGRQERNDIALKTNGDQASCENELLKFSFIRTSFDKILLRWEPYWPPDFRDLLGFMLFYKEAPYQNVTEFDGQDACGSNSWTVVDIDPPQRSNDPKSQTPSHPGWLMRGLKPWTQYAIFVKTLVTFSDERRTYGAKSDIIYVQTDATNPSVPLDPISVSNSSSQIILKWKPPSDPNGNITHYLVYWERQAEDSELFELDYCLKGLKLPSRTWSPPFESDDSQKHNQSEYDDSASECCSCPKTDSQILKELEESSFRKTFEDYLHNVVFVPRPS
T1 sequence (P15208 753-1372 partner limits assumed): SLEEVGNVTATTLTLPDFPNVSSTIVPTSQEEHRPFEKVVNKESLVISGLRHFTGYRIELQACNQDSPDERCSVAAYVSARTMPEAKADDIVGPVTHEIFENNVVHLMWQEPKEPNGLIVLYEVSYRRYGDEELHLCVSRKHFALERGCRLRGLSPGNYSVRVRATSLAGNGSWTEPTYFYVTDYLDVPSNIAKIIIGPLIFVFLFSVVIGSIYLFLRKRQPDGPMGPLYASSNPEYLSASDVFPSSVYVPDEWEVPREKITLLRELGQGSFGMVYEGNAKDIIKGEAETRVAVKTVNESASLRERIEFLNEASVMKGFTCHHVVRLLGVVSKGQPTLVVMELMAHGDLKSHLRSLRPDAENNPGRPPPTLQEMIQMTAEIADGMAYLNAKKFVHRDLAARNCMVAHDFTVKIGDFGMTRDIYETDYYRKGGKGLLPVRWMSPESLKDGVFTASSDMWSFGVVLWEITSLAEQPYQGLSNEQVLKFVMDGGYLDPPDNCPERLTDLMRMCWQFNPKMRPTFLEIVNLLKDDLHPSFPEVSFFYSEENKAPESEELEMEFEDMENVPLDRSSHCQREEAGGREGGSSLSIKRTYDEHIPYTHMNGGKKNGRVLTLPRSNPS

Consider `CN(C)CCCN1c2ccccc2Sc2ccc(Cl)cc21` [CPZ, chlorpromazine], for which, in data set [1], the “amount of 125I-insulin internalized, difference vs vehicle (increase)” value came to 76.9% and the “microvessel surface binding of 125I-insulin, difference vs vehicle (increase)” value is 42.2%.

For `CC[C@@]1([C@@H]2O[C@@H]([C@H]3O[C@@](O)(CO)[C@H](C)C[C@@H]3C)C[C@@H]2C)CC[C@H]([C@]2(C)CC[C@]3(C[C@H](O)[C@@H](C)[C@@H]([C@@H](C)[C@@H](OC)[C@H](C)C(=O)O)O3)O2)O1` [Monensin], in data set [1], the “amount of 125I-insulin internalized, difference vs vehicle (increase)” value is given as 33.7% and the “microvessel surface binding of 125I-insulin, difference vs vehicle (increase)” value is 36.3%. The “effect on 125I-insulin transport (Ki) or vascular binding (Vi) (in words)” value at blood-brain barrier [2] (5 μM monensin pre-treatment 10 min) was “no effect”. Further, the “125I-S961 binding (%Inj/g), effect of pre-treatment (in words)” value on insulin receptor is “significantly increased”. Also, the “decrease in hypothalamic BBB transport of 125I-transferrin” value with blood-brain barrier [3] is 80%.

On to `CCCCC[C@@H](O)[C@H]1C(=O)O[C@H](C)[C@@H](O)/C=C/C=C/C=C/C=C/C=C(\C)[C@@H](O)C[C@H](O)C[C@H](O)C[C@H](O)C[C@H](O)C[C@H](O)C[C@@H]1O` [Filipin, Filipin III], for which the “Vi of 125I-insulin” value in the data set on blood-brain barrier [2] (setting [4]) stood at 8.4 ± 2.3 µL/g; in the data set on blood-brain barrier [2] (setting [5]), 2.8 ± 3.0 µL/g; with blood-brain barrier [2] (setting [6]), 5.0 ± 1.5 µL/g. Also, at blood-brain barrier [2] (setting [4]), the “effect on 125I-insulin transport (Ki) (in words)” value is recorded as “does limit transport”. In addition, the “Ki of 125I-insulin” value in the data set on blood-brain barrier [2] (hypothalamus, 2 μg/ml filipin pre-perfusion 10 min, ns, slope did not significantly differ from zero) amounted to 0.94 ± 0.66 µL/g/min; with blood-brain barrier [2] (hypothalamus, 2 μg/ml filipin pre-perfusion 10 min, ns, slope did not significantly differ from zero, listed as filipin), 0.94 ± 0.43 µL/g/min; in the data set on blood-brain barrier [2] (setting [5]) it was 3.06 ± 0.93 µL/g/min; in the data set on blood-brain barrier [2] (setting [6]), 0.94 ± 0.43 µL/g/min. Also, the “effect on 125I-insulin transport (Ki) or vascular binding (Vi) (in words)” value at blood-brain barrier [2] (2 μg/ml filipin pre-perfusion 10 min) is on record as “no effect”.
